The values that follow come from patent US9636418B2 (priority 2013, dated 2017).

pIC50: −log10 of the molar value. Values joined by “and” are separate entries in the source; they are usually repeats but may differ in a detail not shown here. Equal entries are not always repeated. Where two headings read alike, the source gives them in different places.

Assay in all cases: cell-based
For assay [1], the target named is T1, hNav1.5 (Homo sapiens, UniProt Q14524). The conditions noted are these: for pIC50: PatchXpress, read-out: PX hNav1.5 Tonic IC50.
The target of assay [2] is T2, hNav1.7 (Homo sapiens, UniProt Q15858). To be noted: IonWorks Quattro; read-out: IC50 Nav1.7. (In general: In patch-clamp work, channel activity is measured electrically.)
Assay [3] has as its target T3, hNav1.4 (Homo sapiens, UniProt P35499). To be noted: for pIC50: PatchXpress, read-out: PX hNav1.4 Tonic IC50.
For assay [4], the target named is T3, hNav1.4. The conditions noted are these: for pIC50: IonWorks Quattro, read-out: IC50 Nav1.4; for Nav1.4/Nav1.7: ratio of IonWorks Quattro IC50 values.
In the next assay the target is hNav1.3 (Homo sapiens, UniProt Q9NY46). To be noted: IonWorks Quattro; read-out: IC50 Nav1.3.
The target of assay [5] is T2, hNav1.7. The class given is cell-based. To be noted: PatchXpress, read-out: PX hNav1.7 Tonic IC50.
The target in assay [6] is T1, hNav1.5. The conditions noted are these: IonWorks Quattro; read-out: IC50 Nav1.5.
Where [7] appears, read: * = at high concentrations compound would wash off slowly or not at all.

T1 sequence (Q14524 whole entry): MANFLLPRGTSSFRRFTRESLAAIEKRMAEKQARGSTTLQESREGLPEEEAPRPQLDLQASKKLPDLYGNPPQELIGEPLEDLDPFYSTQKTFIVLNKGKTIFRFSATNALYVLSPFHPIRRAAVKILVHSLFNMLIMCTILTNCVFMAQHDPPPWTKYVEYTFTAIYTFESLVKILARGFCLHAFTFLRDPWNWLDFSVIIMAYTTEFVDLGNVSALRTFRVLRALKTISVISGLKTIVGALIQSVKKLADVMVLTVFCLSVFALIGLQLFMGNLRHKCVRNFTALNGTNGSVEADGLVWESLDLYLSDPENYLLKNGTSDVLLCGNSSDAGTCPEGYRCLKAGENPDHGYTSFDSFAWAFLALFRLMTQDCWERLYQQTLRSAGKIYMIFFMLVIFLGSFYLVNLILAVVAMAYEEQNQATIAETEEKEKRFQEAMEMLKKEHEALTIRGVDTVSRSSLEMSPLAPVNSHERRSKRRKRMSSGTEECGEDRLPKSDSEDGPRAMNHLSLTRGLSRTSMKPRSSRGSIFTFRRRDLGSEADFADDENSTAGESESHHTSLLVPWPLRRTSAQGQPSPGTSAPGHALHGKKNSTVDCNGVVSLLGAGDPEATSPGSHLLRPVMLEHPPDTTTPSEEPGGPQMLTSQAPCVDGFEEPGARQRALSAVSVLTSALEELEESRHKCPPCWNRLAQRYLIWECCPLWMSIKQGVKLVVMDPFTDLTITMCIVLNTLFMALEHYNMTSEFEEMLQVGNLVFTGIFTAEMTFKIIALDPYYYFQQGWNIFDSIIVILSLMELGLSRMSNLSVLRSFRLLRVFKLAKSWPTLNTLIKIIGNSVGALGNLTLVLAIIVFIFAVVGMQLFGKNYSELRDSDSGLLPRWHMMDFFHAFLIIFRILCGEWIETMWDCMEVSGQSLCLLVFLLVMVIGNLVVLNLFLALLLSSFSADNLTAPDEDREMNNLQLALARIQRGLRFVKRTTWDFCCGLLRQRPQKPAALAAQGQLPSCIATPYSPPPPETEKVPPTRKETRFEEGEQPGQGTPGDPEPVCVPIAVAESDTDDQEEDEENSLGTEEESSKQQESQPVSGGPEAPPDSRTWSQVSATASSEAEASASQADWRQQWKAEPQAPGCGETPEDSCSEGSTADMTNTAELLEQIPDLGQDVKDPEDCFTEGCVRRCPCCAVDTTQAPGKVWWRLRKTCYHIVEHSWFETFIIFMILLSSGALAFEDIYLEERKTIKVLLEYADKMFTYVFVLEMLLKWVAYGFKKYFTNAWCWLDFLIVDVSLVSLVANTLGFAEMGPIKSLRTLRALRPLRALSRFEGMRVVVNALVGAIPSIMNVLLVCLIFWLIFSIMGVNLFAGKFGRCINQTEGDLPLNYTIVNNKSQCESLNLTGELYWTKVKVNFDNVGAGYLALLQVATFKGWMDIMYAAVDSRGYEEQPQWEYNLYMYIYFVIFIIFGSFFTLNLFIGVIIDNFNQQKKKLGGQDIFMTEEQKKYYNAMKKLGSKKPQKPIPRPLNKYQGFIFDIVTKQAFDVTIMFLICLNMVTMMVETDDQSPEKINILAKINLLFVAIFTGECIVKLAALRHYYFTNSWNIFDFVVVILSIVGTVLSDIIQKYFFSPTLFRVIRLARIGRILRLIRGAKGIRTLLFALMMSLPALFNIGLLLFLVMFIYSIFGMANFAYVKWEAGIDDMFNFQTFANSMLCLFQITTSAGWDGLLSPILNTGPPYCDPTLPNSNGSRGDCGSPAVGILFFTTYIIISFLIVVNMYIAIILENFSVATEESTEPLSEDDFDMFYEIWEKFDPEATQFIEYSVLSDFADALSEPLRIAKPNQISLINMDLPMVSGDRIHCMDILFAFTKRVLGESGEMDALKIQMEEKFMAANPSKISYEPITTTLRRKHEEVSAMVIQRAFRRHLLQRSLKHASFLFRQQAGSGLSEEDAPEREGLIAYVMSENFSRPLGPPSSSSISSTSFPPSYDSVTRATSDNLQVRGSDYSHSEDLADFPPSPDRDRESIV
T3 sequence (P35499 whole entry): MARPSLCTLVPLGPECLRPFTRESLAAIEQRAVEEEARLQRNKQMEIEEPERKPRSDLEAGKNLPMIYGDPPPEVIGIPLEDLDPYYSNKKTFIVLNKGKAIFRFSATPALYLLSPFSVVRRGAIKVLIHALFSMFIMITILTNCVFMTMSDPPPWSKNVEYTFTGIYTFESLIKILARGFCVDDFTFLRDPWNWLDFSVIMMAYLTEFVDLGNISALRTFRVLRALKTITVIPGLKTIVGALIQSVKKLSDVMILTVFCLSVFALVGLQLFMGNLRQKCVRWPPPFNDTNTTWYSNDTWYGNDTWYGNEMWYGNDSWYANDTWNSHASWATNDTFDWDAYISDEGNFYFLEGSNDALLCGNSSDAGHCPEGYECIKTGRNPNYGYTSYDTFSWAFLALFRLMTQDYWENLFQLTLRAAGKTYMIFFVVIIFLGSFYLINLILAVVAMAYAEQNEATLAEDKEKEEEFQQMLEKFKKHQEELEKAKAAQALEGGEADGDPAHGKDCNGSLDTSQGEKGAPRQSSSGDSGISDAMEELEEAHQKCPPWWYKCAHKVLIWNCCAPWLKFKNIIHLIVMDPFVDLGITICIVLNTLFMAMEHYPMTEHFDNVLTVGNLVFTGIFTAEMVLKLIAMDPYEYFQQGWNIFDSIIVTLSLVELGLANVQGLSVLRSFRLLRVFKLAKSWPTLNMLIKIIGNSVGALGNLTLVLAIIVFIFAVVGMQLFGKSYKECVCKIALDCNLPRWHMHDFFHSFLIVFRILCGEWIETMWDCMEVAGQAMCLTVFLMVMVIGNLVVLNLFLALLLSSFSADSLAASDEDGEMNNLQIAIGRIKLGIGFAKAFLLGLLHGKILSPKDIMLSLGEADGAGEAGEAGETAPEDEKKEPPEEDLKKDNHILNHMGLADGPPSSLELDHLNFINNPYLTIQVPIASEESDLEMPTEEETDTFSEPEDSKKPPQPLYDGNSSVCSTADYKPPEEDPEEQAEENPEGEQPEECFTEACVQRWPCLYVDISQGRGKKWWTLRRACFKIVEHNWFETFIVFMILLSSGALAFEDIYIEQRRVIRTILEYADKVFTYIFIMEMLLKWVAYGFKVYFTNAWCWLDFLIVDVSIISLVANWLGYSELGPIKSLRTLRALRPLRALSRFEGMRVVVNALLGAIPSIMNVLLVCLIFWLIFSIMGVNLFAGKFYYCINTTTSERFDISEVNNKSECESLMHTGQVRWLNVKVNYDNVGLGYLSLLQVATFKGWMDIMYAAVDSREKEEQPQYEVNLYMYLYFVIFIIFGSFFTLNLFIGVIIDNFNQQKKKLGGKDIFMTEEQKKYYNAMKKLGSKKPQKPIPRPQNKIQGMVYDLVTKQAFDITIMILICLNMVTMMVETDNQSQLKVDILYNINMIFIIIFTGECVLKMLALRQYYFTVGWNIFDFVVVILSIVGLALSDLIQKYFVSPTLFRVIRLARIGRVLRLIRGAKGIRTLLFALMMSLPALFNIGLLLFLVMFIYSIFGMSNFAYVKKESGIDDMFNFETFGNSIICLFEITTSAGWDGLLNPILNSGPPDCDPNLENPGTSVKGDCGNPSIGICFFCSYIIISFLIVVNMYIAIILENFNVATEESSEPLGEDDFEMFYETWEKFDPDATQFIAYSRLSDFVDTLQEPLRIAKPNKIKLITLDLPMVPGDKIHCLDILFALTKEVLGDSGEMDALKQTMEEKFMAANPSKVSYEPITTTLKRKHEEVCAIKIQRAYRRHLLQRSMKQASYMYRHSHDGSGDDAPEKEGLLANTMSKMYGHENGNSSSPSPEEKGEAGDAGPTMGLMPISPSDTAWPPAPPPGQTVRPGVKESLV

In the case of `CC[C@H](C)[C@H](NC(=O)[C@H](Cc1ccc(O)cc1)NC(=O)[C@H](CCCCN)NC(=O)[C@H](CCCNC(=N)N)NC(=O)[C@@H]1CSSC[C@@H]2NC(=O)[C@H](C)NC(=O)[C@H](CCCNC(=N)N)NC(=O)[C@H](CCCCN)NC(=O)[C@H](CO)NC(=O)[C@H](CC(=O)O)NC(=O)[C@@H]3CSSC[C@H](NC(=O)[C@H](CCC(=O)O)NC(=O)[C@H](CC(C)C)NC(=O)CNC(=O)[C@H](CCC(=O)O)NC(=O)[C@H](CSSC[C@H](NC(=O)[C@@H](N)Cc4ccc(O)cc4)C(=O)N[C@@H](CCC(N)=O)C(=O)N[C@@H](CCCCN)C(=O)N[C@@H](Cc4c[nH]c5ccccc45)C(=O)N[C@@H](CCSC)C(=O)N[C@@H](Cc4c[nH]c5ccccc45)C(=O)N[C@@H]([C@@H](C)O)C(=O)N3)NC2=O)C(=O)N[C@@H](CCCCN)C(=O)N[C@@H](CC(C)C)C(=O)N[C@@H](Cc2cccc3ccccc23)C(=O)N1)C(N)=O` [compound 218], the pIC50 is 5.00 at hNav1.5 [1] (setting [7]); 6.52 at hNav1.7 [2]; 5.28 at hNav1.4 [3] (setting [7]); less than 5.15 on hNav1.4 [4]; less than 5.15 at hNav1.3; 7.92 at hNav1.7 [5] (setting [7]). In addition, the negative logarithm of the IC50 (pIC50) on hNav1.5 [6] is less than 5.15.
`CSCC[C@@H]1NC(=O)[C@H](Cc2c[nH]c3ccccc23)NC(=O)[C@H](CCCCN)NC(=O)[C@H](CCC(N)=O)NC(=O)[C@@H](NC(=O)[C@@H](N)Cc2ccc(O)cc2)CSSC[C@@H]2NC(=O)[C@@H]3CSSC[C@@H](C(=O)N[C@@H](CCCNC(=N)N)C(=O)N[C@@H](CCCCN)C(=O)N[C@@H](Cc4ccc(O)cc4)C(=O)N[C@@H](Cc4cccc5ccccc45)C(N)=O)NC(=O)[C@H](Cc4c[nH]c5ccccc45)NC(=O)[C@H](CC(C)C)NC(=O)[C@H](CCCCN)NC(=O)[C@H](CSSC[C@H](NC(=O)[C@H]([C@@H](C)O)NC(=O)[C@H](Cc4c[nH]c5ccccc45)NC1=O)C(=O)N[C@@H](CC(=O)O)C(=O)N[C@@H](CO)C(=O)N[C@@H](CCCCN)C(=O)N[C@@H](CCCNC(=N)N)C(=O)N[C@@H](C)C(=O)N3)NC(=O)[C@H](CCC(=O)O)NC(=O)[C@H](CC(C)C)NC(=O)CNC(=O)[C@H](CCC(=O)O)NC2=O` [compound 232]: the pIC50 was 5.67 on hNav1.5 [1] (setting [7]); 7.30 at hNav1.7 [2]; 5.78 at hNav1.4 [3] (setting [7]); 5.34 at hNav1.4 [4]; 5.68 on hNav1.3; 8.35 at hNav1.7 [5] (setting [7]). The pIC50 at hNav1.5 [6] was 5.34. In addition, at hNav1.5 [1] (ratio of PX IC50 values), the Nav1.5/Nav1.7 was found to be 480. The Nav1.4/Nav1.7 on hNav1.4 [4] was 91.
For the compound `CSCC[C@@H]1NC(=O)[C@H](Cc2c[nH]c3ccccc23)NC(=O)[C@H](CCCCN)NC(=O)[C@H](CCC(N)=O)NC(=O)[C@@H](NC(=O)[C@@H](N)Cc2ccc(O)cc2)CSSC[C@@H]2NC(=O)[C@@H]3CSSC[C@@H](C(=O)N[C@@H](CCCNC(=N)N)C(=O)N[C@@H](CCCCN)C(=O)N[C@@H](Cc4ccc(O)cc4)C(=O)N[C@@H](Cc4ccc5ccccc5c4)C(N)=O)NC(=O)[C@H](Cc4c[nH]c5ccccc45)NC(=O)[C@H](CC(C)C)NC(=O)[C@H](CCCCN)NC(=O)[C@H](CSSC[C@H](NC(=O)[C@H]([C@@H](C)O)NC(=O)[C@H](Cc4c[nH]c5ccccc45)NC1=O)C(=O)N[C@@H](CC(=O)O)C(=O)N[C@@H](CO)C(=O)N[C@@H](CCCCN)C(=O)N[C@@H](CCCNC(=N)N)C(=O)N[C@@H](C)C(=O)N3)NC(=O)[C@H](CCC(=O)O)NC(=O)[C@H](CC(C)C)NC(=O)CNC(=O)[C@H](CCC(=O)O)NC2=O` [compound 233], the negative logarithm of the IC50 (pIC50) at hNav1.5 [1] (setting [7]) is 5.70; at hNav1.7 [2], 7.36; on hNav1.4 [3] (setting [7]), 5.91; at hNav1.4 [4], less than 5.30; on hNav1.3 it was 5.66; on hNav1.7 [5] (setting [7]) it was 8.34. Moreover, the pIC50 on hNav1.5 [6] is less than 5.30.
With `CSCC[C@@H]1NC(=O)[C@H](Cc2c[nH]c3ccccc23)NC(=O)[C@H](CCCCN)NC(=O)[C@H](CCC(N)=O)NC(=O)[C@@H](NC(=O)[C@@H](N)Cc2ccc(O)cc2)CSSC[C@@H]2NC(=O)[C@@H]3CSSC[C@@H](C(=O)N[C@@H](CCCNC(=N)N)C(=O)N[C@@H](CCCCN)C(=O)N[C@@H](Cc4ccc(O)cc4)C(=O)N[C@@H](CC(C)C)C(N)=O)NC(=O)[C@H](Cc4c[nH]c5ccccc45)NC(=O)[C@H](CC(C)C)NC(=O)[C@H](CCCCN)NC(=O)[C@H](CSSC[C@H](NC(=O)[C@H]([C@@H](C)O)NC(=O)[C@H](Cc4c[nH]c5ccccc45)NC1=O)C(=O)N[C@@H](CC(=O)O)C(=O)N[C@@H](CO)C(=O)N[C@@H](CCCCN)C(=O)N[C@@H](CCCNC(=N)N)C(=O)N[C@@H](C)C(=O)N3)NC(=O)[C@H](CCC(=O)O)NC(=O)[C@H](CC(C)C)NC(=O)CNC(=O)[C@H](CCC(=O)O)NC2=O` [compound 238], the pIC50 at hNav1.5 [1] (setting [7]) was 5.13; at hNav1.7 [2], 7.08 and 6.64; on hNav1.4 [3] (setting [7]), 6.20; at hNav1.4 [4], 5.35 and < 5.30; at hNav1.3, 5.52 and < 5.30; on hNav1.7 [5] (setting [7]), 8.59. The pIC50 at hNav1.5 [6] is less than 5.30.
For the compound `CCCC[C@H](NC(=O)[C@H](Cc1ccc(O)cc1)NC(=O)[C@H](CCCCN)NC(=O)[C@H](CCCNC(=N)N)NC(=O)[C@@H]1CSSC[C@@H]2NC(=O)[C@H](C)NC(=O)[C@H](CCCNC(=N)N)NC(=O)[C@H](CCCCN)NC(=O)[C@H](CO)NC(=O)[C@H](CC(=O)O)NC(=O)[C@@H]3CSSC[C@H](NC(=O)[C@H](CCC(=O)O)NC(=O)[C@H](CC(C)C)NC(=O)CNC(=O)[C@H](CCC(=O)O)NC(=O)[C@H](CSSC[C@H](NC(=O)[C@@H](N)Cc4ccc(O)cc4)C(=O)N[C@@H](CCC(N)=O)C(=O)N[C@@H](CCCCN)C(=O)N[C@@H](Cc4c[nH]c5ccccc45)C(=O)N[C@@H](CCSC)C(=O)N[C@@H](Cc4c[nH]c5ccccc45)C(=O)N[C@@H]([C@@H](C)O)C(=O)N3)NC2=O)C(=O)N[C@@H](CCCCN)C(=O)N[C@@H](CC(C)C)C(=O)N[C@@H](Cc2c[nH]c3ccccc23)C(=O)N1)C(N)=O` [compound 239], the pIC50 at hNav1.5 [1] (setting [7]) is 5.01; on hNav1.7 [2], 7.10; at hNav1.4 [3] (setting [7]), 6.10; at hNav1.4 [4] it was less than 5.30; at hNav1.3 it was 5.40; at hNav1.7 [5] (setting [7]), 8.21. In addition, the pIC50 on hNav1.5 [6] is less than 5.30.
On to `CC[C@H](C)[C@H](NC(=O)[C@H](Cc1ccc(O)cc1)NC(=O)[C@H](CCCCN)NC(=O)[C@H](CCCNC(=N)N)NC(=O)[C@@H]1CSSC[C@@H]2NC(=O)[C@H](C)NC(=O)[C@H](CCCNC(=N)N)NC(=O)[C@H](CCCCN)NC(=O)[C@H](CO)NC(=O)[C@H](CC(=O)O)NC(=O)[C@@H]3CSSC[C@H](NC(=O)[C@H](CCC(=O)O)NC(=O)[C@H](CC(C)C)NC(=O)CNC(=O)[C@H](CCC(=O)O)NC(=O)[C@H](CSSC[C@H](NC(=O)[C@@H](N)CCC(=O)O)C(=O)N[C@@H](CCC(N)=O)C(=O)N[C@@H](CCCCN)C(=O)N[C@@H](Cc4c[nH]c5ccccc45)C(=O)N[C@@H](CCSC)C(=O)N[C@@H](Cc4c[nH]c5ccccc45)C(=O)N[C@@H]([C@@H](C)O)C(=O)N3)NC2=O)C(=O)N[C@@H](CCCCN)C(=O)N[C@@H](CC(C)C)C(=O)N[C@@H](Cc2c[nH]c3ccccc23)C(=O)N1)C(N)=O` [compound 277], for which the negative logarithm of the IC50 (pIC50) on hNav1.5 [1] (setting [7]) was less than 5.00; at hNav1.7 [2], 6.68; on hNav1.4 [3] (setting [7]) it was 6.03; at hNav1.4 [4], less than 5.30; at hNav1.3, less than 5.30; on hNav1.7 [5] (setting [7]), 8.26. The pIC50 on hNav1.5 [6] is 5.70.
Take `C#CC[C@@H]1NC(=O)[C@H](CCCNC(=N)N)NC(=O)[C@H](CCCCN)NC(=O)[C@H](CO)NC(=O)[C@H](CC(=O)O)NC(=O)[C@@H]2CSSC[C@@H]3NC(=O)[C@H](CCCNC(=N)N)NC(=O)[C@H](CC(C)C)NC(=O)CNC(=O)[C@H](CCC(=O)O)NC(=O)[C@H](CSSC[C@H](NC(=O)[C@@H](N)Cc4ccc(O)cc4)C(=O)N[C@@H](CCC(N)=O)C(=O)N[C@@H](CCCCN)C(=O)N[C@@H](Cc4c[nH]c5ccccc45)C(=O)N[C@@H](CCCC)C(=O)N[C@@H](Cc4c[nH]c5ccccc45)C(=O)N[C@@H]([C@@H](C)O)C(=O)N2)NC(=O)[C@H](CSSC[C@@H](C(=O)N[C@@H](CCCNC(=N)N)C(=O)N[C@@H](CCCCN)C(=O)N[C@H](C(=O)N[C@H](C(N)=O)[C@@H](C)CC)[C@@H](C)CC)NC(=O)[C@H](Cc2c[nH]c4ccccc24)NC(=O)[C@H](CC(C)C)NC(=O)[C@H](CCCCN)NC3=O)NC1=O` [compound 283]: the pIC50 was 6.20 on hNav1.5 [1] (tonic block); 7.15 at hNav1.7 [2]; 8.30 on hNav1.4 [3] (tonic block); 7.05 at hNav1.4 [4]; 7.22 at hNav1.3; 9.52 on hNav1.7 [5] (tonic block). At hNav1.5 [6], the pIC50 was less than 5.15. The Nav1.4/Nav1.7 at hNav1.4 [3] (ratio of PX tonic IC50 values) was 17; at hNav1.4 [4] it was 1.

As usually defined, the pIC50 is the IC50 on a negative log10 scale, so that one unit is a factor of ten.
